According to patent US10744137B1, “Liquisolid tablet containing combined dose of tadalafil and dapoxetine” (King Abdulaziz University, priority 2020, dated 2020):
In brackets after ≈: the same amount, converted by molar mass. Where two headings read alike, the source gives them in different places.

Legend:
[1] = Solubility studies of TDL and DPX in nonvolatile solvents and distilled water; type: physicochemical
Protocol: Solubility studies of TDL and DPX were determined in various nonvolatile solvents separately as described previously with full details in the literature (Al-Subaie et al., 2015)(Aldawsari et al., 2018)(El-Say et al., 2019). The solvents used in this study were Span® 80, Tween® 80, PEG 400, PEG 200, Labrasol®, Kolliphor® EL, glycerin and distilled water were used.

[2] = DPX, low and variable (El-Say et al., 2019); cited from earlier work

SMILES	solubility ([1]; in distilled water, read-out: Solubility of DPX)	solubility ([1]; oil or lipid, in Labrasol, read-out: Solubility of DPX)	oral bioavailability [2]	solubility ([1]; in distilled water, read-out: Solubility of TDL)	solubility ([1]; organic solvent or mixture, in PEG 200, read-out: Solubility of TDL)
CN(C)[C@@H](CCOc1cccc2ccccc12)c1ccccc1 [DPX, dapoxetine]	35.6 mg/mL (≈ 117 mM)	57.7 mg/mL (≈ 189 mM)	15-76%		
CN1CC(=O)N2[C@H](c3ccc4c(c3)OCO4)c3[nH]c4ccccc4c3C[C@@H]2C1=O [TDL, tadalafil]				0.049 mg/mL (≈ 0.126 mM)	10.1 mg/mL (≈ 25.9 mM)
